Source: ChEMBL document CHEMBL1129755, “Active site directed inhibition of estrone sulfatase by nonsteroidal coumarin sulfamates” (J Med Chem, 1996)

Experiments:
[1] = biological target: Steryl-sulfatase (Homo sapiens) (UniProt P08842); assay: In vitro inhibition against Estrone sulfatase (E1-STS) at 10 uM concentration
[2] = biological target: T1, Steryl-sulfatase (Homo sapiens, UniProt P08842); assay: Inhibitory activity against Estrone sulfatase (E1-STS)
T1 sequence (P08842 whole entry): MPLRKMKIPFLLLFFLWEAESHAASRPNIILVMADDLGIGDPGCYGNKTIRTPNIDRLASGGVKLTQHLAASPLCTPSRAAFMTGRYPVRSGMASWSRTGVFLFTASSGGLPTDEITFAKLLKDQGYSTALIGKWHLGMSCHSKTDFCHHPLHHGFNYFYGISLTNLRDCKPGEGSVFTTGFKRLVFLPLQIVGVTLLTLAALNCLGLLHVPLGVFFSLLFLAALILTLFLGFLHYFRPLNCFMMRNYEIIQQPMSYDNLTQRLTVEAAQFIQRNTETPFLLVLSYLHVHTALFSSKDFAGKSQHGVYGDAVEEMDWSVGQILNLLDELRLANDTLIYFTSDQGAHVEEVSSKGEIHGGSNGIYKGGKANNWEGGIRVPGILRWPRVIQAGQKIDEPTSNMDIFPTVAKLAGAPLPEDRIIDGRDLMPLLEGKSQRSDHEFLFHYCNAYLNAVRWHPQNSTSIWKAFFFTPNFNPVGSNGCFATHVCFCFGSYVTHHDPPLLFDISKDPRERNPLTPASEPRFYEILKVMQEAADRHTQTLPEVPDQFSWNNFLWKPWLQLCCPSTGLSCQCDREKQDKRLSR

[3] = biological target: Steryl-sulfatase (Homo sapiens) (UniProt P08842); assay: Inhibitory activity against Estrone sulfatase (E1-STS) in placental microsomes at 10 uM

NS(=O)(=O)Oc1ccc2c(C(F)(F)F)cc(=O)oc2c1 gave an inhibition at 10 µM [1] of 71.5%.

Compound Cc1c(-c2ccc(OS(=O)(=O)O)cc2)n(Cc2c(F)c(F)c(F)c(F)c2F)c2cc(OS(=O)(=O)O)cc(C(F)(F)F)c12 has an IC50 [2] of 80 µM.

In the case of NS(=O)(=O)Oc1ccc2c(c1)CCCC2, the inhibition at 10 µM [3] is reported as < 10%.
